Data on eleven compounds can be found in patent US20250388568A1, “NLRP3 INHIBITORS” (Kodiak Sciences Inc., priority 2022, published 2025).

Read-outs that look alike come from different tables or passages of the source.

The subject of assay [1] is IL-1β release in THP-1-ASC-GFP cells after NLRP3 activation. Briefly: IC50 determination of IL-1β release inhibition in THP-1-ASC-GFP cells. It is filed as cell-based. The conditions noted are these: THP1-ASC-GFP, read-out: IL-1β IC50 (nM) THP1 cells. Here is the method: Example 78: IC50 Determination of IL-1β Release Inhibition in THP-1-ASC-GFP Cells The compounds were tested for their ability to inhibit the IL-1β release in the THP-1-ASC-GFP cells after NLRP3 activation. THP1-ASC-GFP cells (Invivogen […] thawed following Invivogen's initial culture procedure. […] The growth medium was composed of RPM1640 medium (Gibco 32404-014), 10% heat inactivated (HI) serum (Gibco A3840102), Pen/Strep (Quality Biologics 118-089-721), 10 mM Hepes (Quality Biologics 118-089-721), 2 mM Glutamax (GIBCO 35050-061), 100 μg/mL normocin (Invivogen ant-nr), 100 μg/mL Zeocin (Invivogen ant-zn). The growth medium was freshly prepared once a week and sterile filtered. Assay medium consisted of RPMI 1640 medium, 10 mM Hepes, 2 mM Glutamax and Pen/Strep. To the assay medium, 1 μg/mL LPS (Invivogen tlrl-3pelps) was added. A cell suspension was prepared with assay medium and LPS at 1.25M cells per mL. With an electronic pipet, 80 μl of cell suspension was added to U bottom 96 well polystyrene plates (VWR 10062-902) leaving columns 1 and 2 empty. The plates were placed in the incubator for 4 hours. […] DMSO). An hour prior to the end of LPS incubation, a separate 96 deep well plate, Plate B, was prepared with 400 μL of assay media per well, then 2 μL of the stock DMSO solution from Plate A was added to each corresponding well. Plate B was covered to avoid media evaporation. In a 50 mL tube, a solution of nigericin in assay media at […] concentration was prepared. To a new 96 deep well plate, Plate C, 200 μL of this nigericin containing media was dispensed to each well and […] of the test compounds from Plate A to each corresponding well was added. Plate C was covered to avoid media evaporation. After 4 hours of priming, all the media from the LPS treated THP-1 cells in the initial U bottom plate was removed manually. To this plate of primed cells, 80 μL/well test compounds from Plate B was added in duplicate columns (5 compounds tested per plate). The plate was placed in an incubator for 30 min. […] The plate was placed back in the incubator for 1 hour. At the end of 1 hour, the supernatant from this test plate was transferred to a new 96 well V bottom polypropylene plate which was frozen immediately at -80° C. The plate was transferred to -20° C. the next day and awaiting further determination of cytokine IL-1β level. The release of IL-1β into the cell media was determined by MSD® Multi-Spot Assay System (V-Plex, IL-1B kit, […]-4). Following the manufacture's protocol and using the Alternate Protocol 3, Dilute-In-Plate protocol specifically, the level of IL-1β in the above collected supernatant plate was measured as electrochemiluminescent signals. Using MSD DISCOVERY WORKBENCH® analysis software, the signals were converted to the concentration of IL-1β in each well. The IC50 values of the compounds were calculated using the Graph Pad Prism software based on the […] concentration determined. The detection range of IL-1β using MSD kit was approximately […] (based on various lots of standards purchased from MSD).

The subject of assay [2] is IL-1β release in U937 cells after NLRP3 activation. Briefly: IC50 determination of IL-1β release inhibition in U937 cells. Type of assay: cell-based. The conditions noted are these: Homo sapiens, read-out: IL-1β IC50 (nM) U937 cells. The method, then: Example 79: IC50 Determination of IL-1β Release Inhibition in U937 Cells The compounds of the present disclosure were tested for their ability to inhibit the IL-1β release in the U937 cells after NLRP3 activation. U937 cells (U-97 CRL 1593.2) were thawed following ATCC's initial culture procedure. […] The growth medium was composed of RPMI1640 medium (Quality Biological 112-040-101), 10% serum (Corning 35-076-CV), Pen/Strep (GIBCO 15140-122), 10 mM Hepes (Quality Biological 118-089-721), 2 mM Glutamax (GIBCO 35050-061), and 100 μg/mL normocin (Invivogen ant-nr)-Differentiating media was prepared by adding Phorbol 12-myristate 13-acetate (PMA) (AdipoGen AG-CN2-0010-M005) to growth medium. A cell suspension was prepared with differentiating media at 500k cells/ml. With an electronic pipet, 200 ul of cell suspension was added to each well (96w white plate Corning 3903) leaving columns 1 and 2 empty. Plates were left in the biosafety cabinet for 15 min and then placed in incubator for 90 hours. Priming media was prepared with assay medium consisting of RPMI 1640 medium, 10 mM Hepes, 2 mM Glutamax and Pen/Strep plus 1 μg/mL LPS (Invivogen tlrl-3pelps). Differentiating media was manually removed and 80 ul of priming media was added to each well with an electronic pipet. The plates were placed in the incubator for 5 hours. […] DMSO). An hour prior to the end of LPS incubation, a separate 96 deep well plate, Plate B, was prepared with 400 μL of assay media per well, then […] of the stock DMSO solution from Plate A was added to each corresponding well. Plate B was covered to avoid media evaporation. In a 50 mL tube, a solution of nigericin in assay media at 50 uM/mL concentration was prepared. To a new 96 deep well plate, Plate C, 200 μL of this nigericin containing media was dispensed to each well and 1 μL of the test compounds from Plate B to each corresponding well was added. Plate C was covered to avoid media evaporation. After 5 hours of priming, all the media from the LPS treated U937 cells was removed manually. To this plate of primed cells, 80 μL/well test compounds from Plate B (assay media+compound) was added in duplicate columns (5 compounds tested per plate). The plate was placed in an incubator for 30 min. […] The plate was placed back in the incubator for 1 hour. At the end of 1 hour, the supernatant from this test plate was transferred to a new 96 well V bottom polypropylene plate which was frozen immediately at -80° C. The plate was transferred to -20° C. the next day and awaited further determination of cytokine IL-Ip level. The release of IL-1β into the cell media was determined by MSD® Multi-Spot Assay System (V-Plex, IL-1B kit, […]-4). Following the manufacture's protocol and using the Alternate Protocol 3, Dilute-In-Plate protocol specifically, the level of IL-IP in the above collected supernatant plate was measured as electrochemiluminescent signals. Using MSD DISCOVERY WORKBENCH® analysis software, the signals were converted to the concentration of IL-1β in each well. The IC50 values of the compounds were calculated using the Graph Pad Prism software based on the IL-1β concentration determined. The detection range of IL-1β using MSD kit was approximately […] (based on various lots of standards purchased from MSD).

[3] abbreviates: THP-1-ASC-GFP cells, LPS priming 4 h, nigericin, average of at least three experiments.
Setting [4] is: U-937, PMA-differentiated U937 cells, LPS priming 5 h, nigericin, average of at least three experiments.

Turning to `Cc1oc(S(=O)(=O)NC(=O)Nc2c3c(c(F)c4c2CCC4)CCC3)cc1CN(C)CC1(O)CCCC1` [Example 37, N-((8-fluoro-1,2,3,5,6,7-hexahydro-s-indacen-4-yl)carbamoyl)-4-((((1-hydroxycyclopentyl)methyl)(methyl)amino)methyl)-5-methylfuran-2-sulfonamide], the values for the IC50 in assay [1] (setting [3]) and in assay [2] (setting [4]) were < 5 nM and 5 to 50 nM, respectively.
Take `Cc1oc(S(=N)(=O)NC(=O)Nc2c3c(cc4c2CCC4)CCC3)cc1CNC(C)C` (stereo not shown) [Example 25, N-((1,2,3,5,6,7-hexahydro-s-indacen-4-yl)carbamoyl)-4-((isopropylamino)methyl)-5-methylfuran-2-sulfonimidamide]: the IC50 (in general, the point on the concentration scale where inhibition reaches its midpoint) in assay [1] (4 h) was < 5 nM; in assay [2] (U-937, 5 h), < 5 nM.
For the compound `Cc1oc([S@](=N)(=O)NC(=O)Nc2c3c(c(F)c4c2CCC4)CCC3)cc1CNC(C)C` (single isomer, unassigned) [Example 29], the IC50 in assay [1] (setting [3]) and in assay [2] (setting [4]) was < 5 nM throughout.
For `Cc1oc(S(=N)(=O)NC(=O)Nc2c3c(cc4c2CCC4)CCC3)cc1CN(C)CC1(CO)CCOCC1` (stereo not shown) [Example 10, N-((1,2,3,5,6,7-hexahydro-s-indacen-4-yl)carbamoyl)-4-((((4-(hydroxymethyl)tetrahydro-2H-pyran-4-yl)methyl)(methyl)amino)methyl)-5-methylfuran-2-sulfonimidamide], the IC50 in assay [1] (setting [3]) was < 5 nM; in assay [2] (setting [4]), 5 to 50 nM.
As for `CN(Cc1coc(S(=O)(=O)NC(=O)Nc2c3c(cc4c2CCC4)CCC3)c1)CC1(O)CCC1` [Example 33, N-((1,2,3,5,6,7-hexahydro-s-indacen-4-yl)carbamoyl)-4-((((1-hydroxycyclobutyl)methyl)(methyl)amino)methyl)furan-2-sulfonamide], the IC50 in assay [1] (setting [3]) and in assay [2] (setting [4]) was 5 to 50 nM throughout.
As to `Cn1nc(S(=O)(=O)NC(=O)Nc2c3c(c(F)c4c2CCC4)CCC3)cc1CNCC1(O)CCC1` [Example 59, N-((8-fluoro-1,2,3,5,6,7-hexahydro-s-indacen-4-yl)carbamoyl)-5-((((1-hydroxycyclobutyl)methyl)amino)methyl)-1-methyl-1H-pyrazole-3-sulfonamide], the IC50 in assay [1] (setting [3]) and in assay [2] (setting [4]) was 5 to 50 nM in each case.
As to `CN(Cc1cc(S(=O)(=O)NC(=O)Nc2c3c(c(F)c4c2CCC4)CCC3)nn1C)CC1(O)CCC1` [Example 58, 3-(8-fluoro-1,2,3,5,6,7-hexahydro-s-indacen-4-yl)-1-[5-({[(1-hydroxycyclobutyl)methyl](methyl)amino}methyl)-1-methylpyrazol-3-ylsulfonyl]urea], the IC50 in assay [1] (setting [3]) is 50 to 500 nM; in assay [2] (setting [4]), 5 to 50 nM.
Consider `Cn1nc(S(=O)(=O)NC(=O)Nc2c3c(c(F)c4c2CCC4)CCC3)cc1CN1CCC[C@@H]1CO` [Example 63, (R)-N-((8-fluoro-1,2,3,5,6,7-hexahydro-s-indacen-4-yl)carbamoyl)-5-((2-(hydroxymethyl)pyrrolidin-1-yl)methyl)-1-methyl-1 H-pyrazole-3-sulfonamide], for which the IC50 in assay [1] (setting [3]) and in assay [2] (setting [4]) was 5 to 50 nM throughout.
As to `CC(O)c1cc(S(=O)(=O)NC(=O)Nc2c3c(c(F)c4c2CCC4)CCC3)oc1CN1CCNCC1` (stereo not shown) [Example 72, N-((8-fluoro-1,2,3,5,6,7-hexahydro-s-indacen-4-yl)carbamoyl)-4-(1-hydroxyethyl)-5-(piperazin-1-ylmethyl)furan-2-sulfonamide], the IC50 in assay [1] (setting [3]) and in assay [2] (setting [4]) was 5 to 50 nM each time.
In the case of `CC(C)NCc1coc([S@](=N)(=O)NC(=O)Nc2c3c(c(F)c4c2CCC4)CCC3)c1` (single isomer, unassigned) [Example 31], the IC50 in assay [1] (setting [3]) and in assay [2] (setting [4]) was < 5 nM each time.
For `O=C(Nc1c2c(cc3c1CCC3)CCC2)NS(=O)(=O)c1cc2c(o1)CCNC2` [Example 73, N-((1,2,3,5,6,7-hexahydro-s-indacen-4-yl)carbamoyl)-4,5,6,7-tetrahydrofuro[3,2-c]pyridine-2-sulfonamide], the IC50 in assay [1] (setting [3]) and in assay [2] (setting [4]) was 5 to 50 nM throughout.
